Assay results from PubChem BioAssay AID1918998 (Molecular Pharmacology Branch, DTP, NCI, 2023).

Tested on: 521955-158-R2-J5-PDC complex spheroid growth
Experiment: Anticancer human tumor 521955-158-R2-J5-PDC patient-derived pancreatic carcinoma cell line growth inhibition [AhR]
Conditions: for IC50: curve of first compound; for viability, T/C: stronger effect = lower value
Source text: Multicellular complex tumor spheroid response to aryl hydrocarbon receptor antagonists in combination with a variety of drugs and investigational agents in selected tumor cell lines
The current study was undertaken to assess response to aryl hydrocarbon receptor antagonists in combination with standard-of-care drugs and investigational agents in solid tumor complex spheroid models. Complex spheroids include a stromal component modeled by human endothelial cells (HUVEC) and fibroblasts modeled by human mesenchymal stem cells (MSCs). The concentration ranges selected for each drug and investigational agent were based upon clinically achievable concentrations if the clinical Cmax of the agent was known.
Compounds. The drugs and investigational agents: BAY 2416964 (NSC825713), GNF351 (NSC835774), CH-223191 (NSC835775), CPI-455 (NSC825282), aza-TdCyd (NSC777586), decitabine (NSC127716), belinostat (NSC758774), entinostat (NSC756642), pevonedistat (NSC761192), tazemetostat (NSC777109), talazoparib (NSC765396), olaparib (NSC753686), selinexor (NSC780203), nedisertib (M3814, NSC802822), bortezomib (NSC756655), venetoclax (NSC766270), doxorubicin (NSC123127), elimusertib (BAY189344, NSC800525), ceralasertib (AZD6738, NSC777638), TAK-243 (NSC785004), alisertib (NSC759677), etoposide (NSC141540), topotecan (NSC609699), eribulin (NSC707389), gemcitabine (NSC613327), carboplatin (NSC241240), cisplatin (NSC119875), and SN-38 (NSC673596) were obtained from the National Cancer Institute (NCI) Developmental Therapeutics Program Chemical Repository (32). The FDA-approved anticancer drug set is available from the Developmental Therapeutics Program at https://dtp.cancer.gov/organization/dscb/obtaining/available plates.htm. […] The stock solutions were prepared in dimethyl sulfoxide (DMSO, Sigma-Aldrich, St. Louis, MO, cat. D2650), except for the platinum compounds which were prepared in saline (Quality Biological, Gaithersburg, MD, cat. 114-055-101), at 800-fold the tested concentration and stored at -70 degrees C prior to their use. All drugs and investigational agents were tested over a range starting from a high concentration at or near the clinical Cmax and decreasing in half-log increments. If the clinical Cmax for an agent had not been determined, the highest concentration tested was 10 microM (Table 1).
Cell Culture. All cells were maintained in an incubator at 37 degrees C and 5% CO2 with 95% humidity. The PDC lines were cultured according to standard operating procedures established by the NCI PDMR (https://pdmr.cancer.gov). Briefly, all PDCs were thawed and cultured in Matrigel-coated flasks prepared with a working solution of 1X Ham's F-12 nutrient mix, without supplementation (Invitrogen, Waltham, MA, cat. 11765054), 100 U/mL penicillin-streptomycin (Invitrogen, cat. 15140122), and 2.5% Matrigel (Corning Inc., Corning, NY, cat. 354248) for the first three passages. All PDCs were cultured in complete DMEM/F-12 media containing advanced DMEM/F-12 (Invitrogen, cat. 12634028), 4.9% defined fetal bovine serum, heat inactivated (HyClone Laboratories Inc., Logan, UT, cat. SH30070.03HI), 389 ng/mL hydrocortisone (Sigma-Aldrich, cat. H4001), 9.7 ng/mL human EGF recombinant protein (Invitrogen, cat. PHG0313), 23.4 microg/mL adenine (Sigma-Aldrich, cat. A2786), 97.3 U/mL penicillin-streptomycin (Invitrogen, cat. 15140122), 1.9 mM L-glutamine (Invitrogen, cat. 25030081), and 9.7 microM Y-27632 dihydrochloride (Tocris Bioscience, Bristol, United Kingdom, cat. 1254). The PDCs were cultured in complete DMEM/F12 media without 10 microM Y-27632 dihydrochloride for at least two passages prior to the screen. The established cell lines NCI-H1341 and […] were cultured in DMEM/F-12, HEPES (Invitrogen, cat. 11330032), 5% defined fetal bovine serum (HyClone Laboratories Inc., cat. SH30070.03), ITS premix universal culture supplement [insulin (5 microg/mL), transferrin (5 microg/mL), and selenious acid (5 ng/mL)] […]

[1] = second compound 0.1 µM, first compound 0.0316 µM
[2] = second compound 0.1 µM, first compound 0.1 µM
[3] = second compound 0.316 µM, first compound 0.0316 µM
[4] = second compound 0.316 µM, first compound 0.1 µM
[5] = second compound 1 µM, first compound 0.0316 µM
[6] = second compound 1 µM, first compound 0.1 µM
[7] = second compound 3.16 µM, first compound 0.0316 µM
[8] = second compound 3.16 µM, first compound 0.1 µM
[9] = second compound 10 µM, first compound 0.0316 µM
[10] = second compound 10 µM, first compound 0.1 µM
[11] = second compound 0.1 µM, first compound 0.316 µM
[12] = second compound 0.1 µM, first compound 1 µM
[13] = second compound 0.1 µM, first compound 3.16 µM
[14] = second compound 0.1 µM, first compound 10 µM
[15] = second compound 0.316 µM, first compound 0.316 µM
[16] = second compound 0.316 µM, first compound 1 µM
[17] = second compound 0.316 µM, first compound 3.16 µM
[18] = second compound 0.316 µM, first compound 10 µM
[19] = second compound 1 µM, first compound 0.316 µM
[20] = second compound 1 µM, first compound 1 µM
[21] = second compound 1 µM, first compound 3.16 µM
[22] = second compound 1 µM, first compound 10 µM
[23] = second compound 3.16 µM, first compound 0.316 µM
[24] = second compound 3.16 µM, first compound 1 µM
[25] = second compound 3.16 µM, first compound 3.16 µM
[26] = second compound 3.16 µM, first compound 10 µM
[27] = second compound 10 µM, first compound 0.316 µM
[28] = second compound 10 µM, first compound 1 µM
[29] = second compound 10 µM, first compound 3.16 µM
[30] = second compound 10 µM, first compound 10 µM
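Wherever viability, T/C is given: spheroids mix tumor cells with HUVEC endothelium and human MSC stroma; luminescence taken as viability surrogate after a week of drug exposure.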

Compound | IC50 (second compound 0.1 µM) [nM] | IC50 (second compound 0.316 µM) [nM] | IC50 (second compound 1 µM) [nM] | IC50 (second compound 3.16 µM) [nM] | IC50 (second compound 10 µM) [nM] | viability, T/C [1] [%] | viability, T/C [2] [%] | viability, T/C [3] [%] | viability, T/C [4] [%] | viability, T/C [5] [%] | viability, T/C [6] [%] | viability, T/C [7] [%] | viability, T/C [8] [%] | viability, T/C [9] [%] | viability, T/C [10] [%] | viability, T/C [11] [%] | viability, T/C [12] [%] | viability, T/C [13] [%] | viability, T/C [14] [%] | viability, T/C [15] [%] | also measured
CC[C@@]1(O)C(=O)OCc2c1cc1n(c2=O)Cc2cc3c(CN(C)C)c(O)ccc3nc2-1 + CC(CO)NC(=O)c1cc(-c2ccc(Cl)cc2)nn(-c2cnn(C)c2)c1=O | 32.3 | 36.7 | 28 | 22 | 19.9 | 51.8 | 16 | 57.4 | 13.3 | 46.1 | 20.1 | 38.3 | 19.2 | 35.3 | 17.9 |  |  |  |  |  | viability, T/C (second compound 0.1 µM, first compound 0.000316 µM): 99.8%; viability, T/C (second compound 0.1 µM, first compound 0.001 µM): 91.6%; viability, T/C (second compound 0.1 µM, first compound 0.00316 µM): 110%; viability, T/C (second compound 0.1 µM, first compound 0.01 µM): 82.5%; viability, T/C (second compound 0.316 µM, first compound 0.000316 µM): 112%; viability, T/C (second compound 0.316 µM, first compound 0.001 µM): 109%; viability, T/C (second compound 0.316 µM, first compound 0.00316 µM): 89.8%; viability, T/C (second compound 0.316 µM, first compound 0.01 µM): 82.5%; viability, T/C (second compound 1 µM, first compound 0.000316 µM): 93%; viability, T/C (second compound 1 µM, first compound 0.001 µM): 104%; viability, T/C (second compound 1 µM, first compound 0.00316 µM): 106%; viability, T/C (second compound 1 µM, first compound 0.01 µM): 86.5%; viability, T/C (second compound 3.16 µM, first compound 0.000316 µM): 99.2%; viability, T/C (second compound 3.16 µM, first compound 0.001 µM): 102%; viability, T/C (second compound 3.16 µM, first compound 0.00316 µM): 91.8%; viability, T/C (second compound 3.16 µM, first compound 0.01 µM): 75.4%; viability, T/C (second compound 10 µM, first compound 0.000316 µM): 76.5%; viability, T/C (second compound 10 µM, first compound 0.001 µM): 86.3%; viability, T/C (second compound 10 µM, first compound 0.00316 µM): 85.6%; viability, T/C (second compound 10 µM, first compound 0.01 µM): 71.6%
COc1cc(C2c3cc4c(cc3C(OC3OC5COC(C)OC5C(O)C3O)C3COC(=O)C23)OCO4)cc(OC)c1O (stereo not given) + CC(CO)NC(=O)c1cc(-c2ccc(Cl)cc2)nn(-c2cnn(C)c2)c1=O | 1060 | 1160 | 916 | 698 | 422 | 85 | 78 | 92.3 | 102 | 98 | 98.3 | 93.5 | 87.5 | 76.3 | 71.4 | 91.8 | 51.4 | 29.3 | 17 | 87.5 | viability, T/C [16]: 53.4%; viability, T/C [17]: 25.5%; viability, T/C [18]: 16.6%; viability, T/C [19]: 95.7%; viability, T/C [20]: 46.1%; viability, T/C [21]: 24.5%; viability, T/C [22]: 20.6%; viability, T/C [23]: 91.9%; viability, T/C [24]: 31.4%; viability, T/C [25]: 23.6%; viability, T/C [26]: 22.8%; viability, T/C [27]: 55.3%; viability, T/C [28]: 33.3%; viability, T/C [29]: 20.4%; viability, T/C [30]: 14.2%
Nc1ccn(C2OC(CO)C(O)C2(F)F)c(=O)n1 (stereo not given) + CC(CO)NC(=O)c1cc(-c2ccc(Cl)cc2)nn(-c2cnn(C)c2)c1=O | 518 | 549 | 504 | 178 | 101 | 59.8 | 75.3 | 56 | 73.8 | 90.5 | 87.8 | 78.1 | 56.4 | 50.2 | 54.5 | 72.4 | 24.4 | 13.2 | 13.6 | 86.4 | viability, T/C [16]: 26.1%; viability, T/C [17]: 11.4%; viability, T/C [18]: 9.09%; viability, T/C [19]: 68.7%; viability, T/C [20]: 22.6%; viability, T/C [21]: 14.2%; viability, T/C [22]: 14.8%; viability, T/C [23]: 45.5%; viability, T/C [24]: 20.9%; viability, T/C [25]: 16.4%; viability, T/C [26]: 11.9%; viability, T/C [27]: 36.3%; viability, T/C [28]: 22.5%; viability, T/C [29]: 15.5%; viability, T/C [30]: 10.5%
